From US20260206745A1, “DOUBLE ENCAPSULATED NANOCOMPOSITE FOR STAGED DELIVERY OF ACTIVE INGREDIENT(S), AND A METHOD OF PRODUCING THEREOF” (COUNCIL OF SCIENTIFIC AND INDUSTRIAL RESEARCH, priority 2022, published 2026)

Tests used:
[1] = Thermal gravimetric analysis (TGA); assay type: physicochemical; conditions: TGA under N2, 10° C. min^−1
Source text: A) Characterization: The morphology and size distribution of the nf and nfATZ were observed using a field emission scanning electron microscope (FE-SEM; Nova NanoSEM 450, FEI, Hillsboro, USA) and a high-resolution transmission electron microscope (HR-TEM; Tecnai TF20, 200 kV FEG, FEI, Hillsboro, USA). The ζ-potential and particle size distribution of nf and nfATZ were estimated using a PALS zeta potential analyzer (Brookhaven Instruments, Holtsville, USA). The material structural analysis was determined using a Fourier transform infrared spectrometer (FTIR; PerkinElmer, Waltham, USA) and X-ray diffractometer (XRD; PANalytical X'Pert PRO, Malvern Panalytical, Malvern, UK). The interaction between ATZ and EC was analyzed using differential scanning calorimetry (DSC). […]
The nf depicts a shift in Tg from 121° C. to 131º° C. […] The nfATZ recorded a Tg at 125° C.; a shift in the Tg from 131° C. […] Two-stage decomposition temperatures were recorded for pristine EC, 50-95° C., due to loss of moisture (weight loss, 2.9%) and 150-380° C. due to fragmentation of chemical bonds (weight loss, 85%). […] Further, it is observed that nfATZ recorded a broad first derivative peak for the weight loss, which may be due to the merging of two first derivative peaks, one for ATZ and the other for EC.

[2] = In vitro atrazine release from nanoformulations (dialysis); assay type: physicochemical; conditions: after 94 hours, DI water, dialysis 12 kDa
Description: B) In vitro atrazine release from nanoformulations: A dialysis tubing (MWCO 12 kDa, Sigma-Aldrich, St. Louis, USA) was taken with nfATZ (2 mg), where the total amount of ATZ loaded was 200 μg. In another dialysis tubing, 200 μg of ATZ (bulk form) dispersed in 2 ml of distilled water (DW) with 0.1% w/v sodium azide was taken. These dialysis bags were kept in 18 mL of DW containing sodium azide, and the release studies were done at 37° C. in a shaker bath (SW23, Julabo, Seelbach, Germany) at 50 rpm. At regular intervals, 1 mL of DW was withdrawn and replaced with 1 mL of fresh DW to maintain the sink conditions. The withdrawn DW was analyzed for the amount of ATZ released using a UV-visible spectrophotometer at λmax of 222 nm. […] After 94 hours of release studies, 60% of ATZ was released in the case of plain ATZ, while 22% of ATZ was released from the nfATZ. […] From this observation, it is noted that the another […] of release from the nano-formulation can extend up to 30 days. From these studies, inventors concluded that the nanoformulations is the best choice to control the weeds for an extended period, which can be manipulated as desired by changing concentration of EC and ATZ.

Question: With `CCNc1nc(Cl)nc(NC(C)C)n1` [plain ATZ, Atrazine] as the compound, how does the maximum degradation temperature [1] read?
Answer: The maximum degradation temperature was 230 °C.

Question: And the ATZ released [2]?
Answer: Its ATZ released is 60%.
